# Measured values: patent US5994365A, “Substituted diazaanthracene compounds having pharmaceutical utility” (Diazans Limited, priority 1998, dated 1999)
# Experiments:
# S. aureus ATCC 25923 = test: Microbroth dilution assay of antimicrobial susceptibility (MIC); assay type: cell-based, Staphylococcus aureus; conditions: microdilution, CAMHB, 37° C., 18 hrs
# Experimental: It is described below, using E. coli ATCC® 25922, S. aureus ATCC® 25923, and P. aeruginosa ATCC® 27853. Prepare 0.0128 g DAA in 10 mL dH2 O (or 95% EtOH, methanol or DMSO if H2 O insoluble)=1280 μg/mL (stock solution). Dilute DAA stock solution 1:10 with CAMHB (Cation-Adjusted Mueller Hinton Broth): 0.5 mL DAA stock solution+4.5 mL CAMHB=128 μg/mL (DAA working solution). Pipette 100 μl of sterile CAMHB per well into columns 2-12 of rows A-G using Eppendorf repeater pipette. Pipette 100 μl per well of sterile-filtered DAA working solution into columns 1 and 2 of rows A, C, E, G using Jensen electric pipette. Mix and transfer 100 μl from column 2 to 3 of rows A, C, E, G using Jensen pipette. Repeat to column 12 then discard 100 μl from column 12. Rows B, D and F are positive growth control lanes for each organism and contain only CAMHB and the organism--no DAA. Row H is the media additive control lane, if necessary (e.g. MeOH, EtOH, DMSO etc.). The concentration of the media additive is obtained by doing a 1:10 dilution of the additive with CAMHB (0.5 mL additive+4.5 mL CAMHB). Row G is considered to be "negative growth control" and is loaded with only CAMHB and the DAA. Inoculate 0.5 mL TSB (Trypticase Soy Broth) tubes with 3 single colonies each of E. coli, S. aureus, and P. Aeruginosa from TSA plates using sterile needle. Incubate @ 37° C. for 4-6 hr. Measure out 100 mL CAMHB using the sterile 100 mL volumetric flask. Pour the excess into a sterile reagent reservoir. Pipette 0.5 mL and discard, leaving 99.5 mL in each of the 3-Erlenmeyer flasks. Set aside. Use the excess CAMHB for the 1:10 dilution of inoculum: 0.5 mL inoculum+4.5 mL CAMHB. Perform a 1:200 dilution of inoculum: 0.5 mL of 1:10 diluted inoculum+99.5 mL CAMHB from previous step. Pipette 100 μl (using Eppendorf repeater pipette) E. coli into each well in columns 1-12 of rows A and B and columns 1-4 of row H (if media additive control lane necessary). Pipette 100 μl P. aeruginosa into each well in columns 1-12 of rows C and D and columns 5-8 of row H (if media additive control lane is necessary). Pipette 100 μl S. aureus into each well in columns 1-12 of rows E and F and columns 9-12 of row H (if media additive control lane is necessary). Incubate microtiter plates @ 37° C. for 18 hrs. The lowest concentration of antimicrobial agent that results in significant inhibition of visible growth represents the MIC (Minimal Inhibitory Concentration).
# C. neoformans ATCC 90112 = test: In vitro antifungal susceptibility assay adapted from NCCLS (MIC); assay type: cell-based, Cryptococcus neoformans; conditions: RPMI-1640
# Experimental: Compounds of the invention also display antifungal activities. […] Using C. albicans ATCC® 90028, C. neoformans ATCC® 90112 and T. glabrata ATCC® 90030, the protocol is performed as follows:
# Prepare 0.0128 g DAA in 10 mL dH2 O (or other if H2 O insoluble)=1280 μg/mL (stock solution). Dilute DAA stock solution 1:10 with RPMI-1640: 0.5 mL DAA stock solution+4.5 mL RPMI-1640=128 μg/mL (DAA working solution).
# Inoculate rows A-H, columns 2-12 with 100 μl of RPMI-1640 using Eppendorf repeater pipette. Inoculate rows A-C columns 1 and 2 with 100 μl of 1st antibiotic (i.e. DAA-1) using electronic pipette. Inoculate rows E-G columns 1 and 2 with 100 μl of 2nd antibiotic (i.e. DAA-2) using electronic pipette. […] Plate is now ready for fungal inocula, which involves pipetting 100 μl of the inocula into all wells in rows A-C columns 1-12 and rows E-G columns 1-12. […]
# Five colonies greater than 1 mm in diameter are suspended in a spectrophotometer cuvette containing 5 mL of sterile, 0.85% saline (colonies are obtained from 24 hrs. old Candida and Torulopsis cultures, while Cryptococcus colonies are chosen from 48 hrs. old cultures). Spectrophotometer is set to read % transmission at a wavelength of 530 nm, and is standardized using two cuvettes. […] Fungal inoculum is now prepared and ready to be introduced to microplates. […]
substance,measurement,setting,value
"10,10'-bis(3,6-dimethyl-5,10-dihydro-1,8-diazaanthracen-5-one) and 5,5'-bis(3,6-dimethyl-5,10-dihydro-1,8-diazaanthracen-10-one) [Example 15]",MIC,S. aureus ATCC 25923,0.0625 µg/mL
same,MIC,C. neoformans ATCC 90112,16 µg/mL
